Experimental findings from patent US20070154393A1, “Bioassay for volatile low molecular weight insecticides and methods of use” (priority 2005, published 2007) are described below.

Where two headings read alike, the source gives them in different places. Bounds are passed on as bounds.

Data set [1] concerns insecticide-susceptible Canton-S strain of Drosophila. In kind it is in vivo. As to conditions: for Slope ± Std. Error (probit mortality line): Table 3, Canton-S, 24 hr. As to the method:
(§1) All experimental materials were purchased from Sigma-Aldrich-Fluka (Milwaukee, Wis.) and were of 99% purity or greater. […] All volatile insecticide stocks were prepared at 100 μg/μl in analytical grade acetone. Rather than weigh the highly volatile liquid insecticides (i.e., all compounds except benzothiophene), weight was determined based on the density-volume relationship of each compound. Four serial dilutions were prepared and tested for each insecticide as described previously (Scharf et al., 2006). The insecticide synergists PBO (piperonyl butoxide) and DEF (SSS-tributyl-phosphoro-trithioate) were obtained from Fluka Chemical Co. (Basel, Switzerland) and Mobay Chemical Co. (Kansas City, Mo.). Both synergists were >95% purity. Synergist stocks were prepared at 100 μg/ml in analytical grade acetone.
(§2) Volatility bioassays were conducted exactly as described in a previous report (Scharf et al., 2006). Briefly, bioassays took place in 0.5-l glass jars with metal lids. Mixed-sex flies were isolated from lab colonies and placed in 4-ml dram vials in groups of ten, along with a dried piece of laboratory diet. The dram vials were capped with open-top septum caps that were covered with fine mesh (held in place by non-toxic glue). For bioassays, the assembled dram vials were placed into the 0.5-l jars along with a folded filter paper “tent” (Whatman #1; Vineland, N.J.). The filter paper was treated with either an insecticide dilution or acetone, the jar was sealed with the metal lid, and the bioassay proceeded for 24-hr at room temperature. Mortality was scored based on a complete lack of movement by the flies. Four concentrations plus an acetone control were tested for all insecticides. Between five and ten replicates were performed for each concentration range on each strain-insecticide combination. Synergist bioassays were performed with a slight modification. Synergist stocks were applied to dram vials at 100 μl per vial to provide assay concentrations of 10 μg per vial. […] After treatment, vials were held at an angle in a fume hood and rotated ¼-turn each minute until the acetone evaporated. Flies and diet were added as above and held for 1-hr. Assays were initiated, run, and scored as above.
(§3) Probit analysis was performed using PROC PROBIT in the SAS software package (SAS Institute; Cary, N.C.). If control mortality ever exceeded 10% in a given replicate, that replicate was discarded. Toxicity and synergist ratios at LC50 were compared statistically using the calculation described by Robertson and Preisler (1992). Using this procedure, ratios with 95% confidence intervals were calculated using a spreadsheet-based program. With this calculation, if confidence intervals include 1.0 then ratios are considered non-significant (p>0.05; Robertson and Preisler, 1992).

For data set [2], the system named is metabolically resistant Hikone-R strain of Drosophila. Type of data set: in vivo. As to conditions: Table 3, Hikone-R, 24 hr. As to the method:
as §1, §2, §3

Data set [3] concerns Rd1 (Rdl-R) strain of Drosophila (GABA-gated chloride channel point mutation). In kind it is in vivo, Drosophila melanogaster. The settings on record: Table 2; Rdl-R, 24 hr.
Description: (§4) Four Drosophila strains were used, all obtained from the Bloomington Drosophila Stock Center (Indiana University; Bloomington, Ind.). The Canton-S strain was used as the insecticide-susceptible standard. The Hikone-R strain is metabolically-resistant with elevated cytochrome P450 levels (Waters et al., 1984; Sundseth et al., 1989; Le Goff et al., 2003; Festucci-Buselli et al., 2005). Hikone-R is resistant to a number of insecticides, including malathion, DDT and neonicotinoids (Sundseth et al., 1989; Daborn et al., 2001). Two resistant neurological-mutant strains were also tested. […] Flies were reared in 100-ml vials capped with acetate plugs (Fisher Scientific; Suwanee, Ga.) on a commercial diet (JAZZ-MIX; Fisher Scientific). Flies were reared on a 12:12 photocycle at 24° C. and 60% relative humidity. Mixed-sex adults, less than 1-wk old, were used in bioassays.
as §1, §2, §3

Data set [4] concerns insecticide-susceptible Drosophila melanogaster (Canton-S strain). Type of data set: in vivo. The settings on record: for Slope ± Std. Error (best-fit probit mortality line): Table 1, 24 hr exposure, probit analysis; for Slope ± Std. Error (best-fit probit mortality line) / Slope ± Std. Error (probit mortality line): Canton-S; for Slope ± Std. Error (probit mortality line): 24 hr. As to the method: The insecticide-susceptible Canton-S strain of Drosophila was obtained from the Bloomington Drosophila stock center (Indiana University, Bloomington, Ind.), and used exclusively in all studies. Flies were reared in 100-ml vials capped with acetate plugs (Fisher Scientific; Suwannee, Ga.) on a JAZZ-MIX diet (Fisher) prepared with a 2:1 ratio of water to apple juice. Flies were reared on a 12:12 photocycle at 24° C. and ambient relative humidity. Mixed-sex adults, less than 1-wk old, were used in bioassays.
Flies were briefly anesthetized in rearing vials with a pulse of CO2 and transferred to a CO2 flowbed (Genesee Scientific; San Diego, Calif.). Using a camel hair brush and a 5×5 cm sheet of rice paper, ten flies were placed into 7.0 ml dram vials. Prior to adding flies, each vial received a 0.5 cm^3 block of rearing diet that had been sufficiently dried on a paper towel to remove excessive moisture. The vials were then capped with open-top septum caps (Fisher) that were covered with fine mesh. The mesh was applied to the septum caps in advance using hot glue; it prevented fly escape but readily permitted gas exchange. The flies were allowed 1-hr to recover from the CO2 anesthesia. After one hour, single vials with flies were placed into 0.5 L glass jars, along with a filter paper tent (see FIG. 1). In a fume hood, filter paper tents were treated with insecticide dilutions or acetone for controls. The jars were then rapidly closed tightly with a metal lid. After 24 hours of exposure, mortality was scored with the aid of a magnifying glass.
All test compounds and solvents were >99% purity, and were purchased from Sigma-Aldrich Chemical (Milwaukee, Wis.). See Table 1 for a listing of the test compounds and their structures. Insecticide stock solutions were prepared at a standard concentration of 100 μg/μl in analytical grade acetone. For liquid insecticidal compounds, density in mg/μl was used to calculate weight on a per-volume basis. Stock solutions were held at −20° C. in sealed amber vials. In bioassay jars, filter paper tents were treated with stock volumes ranging from 2 to 20 μl, depending on the inherent toxicity of the test compound. These volumes of insecticide stock provided test concentrations of 200 to 2000 μg insecticide per replicate jar. A range of 4-5 concentrations plus a control were tested for each insecticide, and each range was repeated five times over at least three days. Controls received a volume of acetone identical to the highest insecticide volume that was tested (i.e., 10 μl for menthofuran; 20 μl for all other insecticides). Between uses, bioassay jars and lids were washed in a dishwasher, then baked 12-16 hr at 90° C. in a drying oven.
Probit and regression analyses were performed using the PROC PROBIT and PROC REG procedures, respectively. […] If control mortality ever exceeded 10% in a given replicate, that replicate was discarded.
as §4

Setting [5] is: Table 2, data taken from Scharf et al. (2006).

For ethyl formate, the “Slope ± Std. Error (probit mortality line)” value in data set [1] (+DEF 10 μg per bioassay vial) turned out to be 1.73 ± 1.35; in data set [1] (+PBO 10 μg per bioassay vial), 4.74 ± 1.44; in data set [2] (+DEF 10 μg per bioassay vial), 14.17 ± 1.80; in data set [2] (+PBO 10 μg per bioassay vial), 5.17 ± 1.28; in data set [3], 6.38 ± 1.91; in data set [4] (setting [5]) it was 5.18 ± 1.07. Moreover, the “Slope ± Std. Error (probit mortality line)” value in data set [4] (Table 3, no synergist) was 5.18 ± 1.07. Further, the “DEF synergism ratio (LC50 with synergist÷LC50 without)” value in data set [1] (esterase inhibitor DEF, reduction in toxicity, strain not given, fits Canton-S of Table 3) is on record as above 12 fold. In data set [4], the “Slope ± Std. Error (best-fit probit mortality line)” value was 5.18 ± 1.07. Besides, in data set [4] (in vivo), the “LC50 (95% CL)” value is 1656.0 (1486.0 − 1917.0) μg/jar.
With methyl formate, the “Slope ± Std. Error (probit mortality line)” value in data set [1] (+DEF 10 μg per bioassay vial) is 3.98 ± 1.52; in data set [1] (+PBO 10 μg per bioassay vial), 49.50; in data set [2] (+DEF 10 μg per bioassay vial), 1.91 ± 0.60; in data set [2] (+PBO 10 μg per bioassay vial), 51.10; in data set [3], 9.41 ± 2.14; in data set [4] (setting [5]) it was 3.27 ± 0.95. In addition, the “Slope ± Std. Error (probit mortality line)” value in data set [4] (Table 3, no synergist) was found to be 3.27 ± 0.95. The “Slope ± Std. Error (best-fit probit mortality line)” value in data set [4] is reported as 3.27 ± 0.95.
